Patent US20150274690A1, “Strigolactone Compositions And Uses Thereof” (Asilomar Bio, Inc., priority 2013, published 2015)

Assays:
Seeds of Striga asiatica = assay: Triggering Striga germination (seed germination bioassay); assay type: in vivo; conditions: for bioactivity: induction of Striga germination (in words): radicle emergence from seeds
Description: (B) Bioactivity of synthetic SL. Seeds of Striga asiatica were exposed to SL (right) or a mock treatment (left). […] (C) Synthetic biological pathway for the production of SL in yeast, consisting of enzymes of plant and microbial origin. We tested the ability of AB01 to trigger the germination of Striga seeds. Seeds of Striga asiatica were conditioned by incubation in the dark at 30 degrees for 7 days, and dilutions of the AB01 material in water were applied. We observed that concentrations of 1 nanogram per liter and greater were able to trigger germination of approximately 30% of the seeds, which is similar to published efficiencies and activity for plant-derived strigolactone (FIG. 1A-B).

[1] = test system: A. thaliana mutants lacking MAXI cytochrome P450 activity; assay: Complementation of Arabidopsis mutant deficient in strigolactone biosynthesis; assay type: in vivo, Arabidopsis thaliana; conditions: 1 uM as an irrigation supplement
Description: To further validate the bioactivity of AB01 we tested whether the compound could complement mutants of the model plant Arabidopsis thaliana that are deficient in strigolactone biosynthesis. […] We grew MAXI A. thaliana under standard conditions and added 1 uM AB01 as an irrigation supplement, or a mock treatment. […] Thus, the synthetic AB01 is sufficiently similar to strigolactone to both to trigger Striga germination as well as substitute for the natural compound in a model plant.

cut flowers = assay: Vase life extension of cut flowers; assay type: in vivo
Description: This example determines the effect of the application of a plant propagation material comprising strigolactone or analogs or mimics thereof on the onset of water-stress symptoms in cut flowers during storage, shipping, and/or life in retail or consumer environment. We test a wide range of concentrations to focus our investigations of the effects of the plant propagation material on cut flowers. Indicators of water-limitation stress in flowers are measured (approximately daily). We take cut flowers, apply a plant propagation material in irrigation water, and place in a normal storage environment (e.g., regular day-night cycles, room temperature). The concentration of the strigolactone or analog or mimic thereof in the plant propagation material spanned a concentration range from 1 gram per liter to 1 picogram per liter. We then monitor plants daily for the presence of water stress indicators and shelf life, such as flower and leaf rolling (wilting), turgor of stems, chlorophyll content, and loss of petals.
Various concentrations of the strigolactone mimic were added to the irrigation water of the cut flowers. The vase life for cut flowers treated with water-only was approximately 4 days, whereas the vase life for the cut flowers treated with the plant propagation material was approximately 6-7 days.

Seeds of O. cumana = assay: Germination triggering of parasitic weed seeds; assay type: in vivo; conditions: 48 hours post-treatment; AB01 compared with 5-dS
Description: Seeds of O. cumana were primed by incubation on glass fiber filters in darkness at room temperature for 3 days. Specified concentrations of AB01 or 5-dS were applied and seeds were monitored at 48 hours post-treatment. Germination was evident by appearance of haustoria. Experiments were performed in triplicate.

Alfalfa [2] = assay: Drought tolerance in alfalfa seedlings; assay type: in vivo; conditions: 1 mg/mL; irrigation stopped; approximately 7 days post-treatment
Description: Alfalfa was grown from seeds for 14 days. Seedlings were treated with 1 mg/mL AB01 or mock treated. Irrigation was stopped after treatment and seedlings were monitored for symptoms of water limitation stress.

[3] = test system: corn (Dekalb hybrid 68-05); assay: Corn field trial, Hays County, Tex., not irrigated; assay type: in vivo
Description: Field trial was performed from April to July 2014 in Hays County, Tex. Dekalb hybrid 68-05 was planted at a density of 25,000 plants per acre (30″rows with 8″spacing). The field was top-dressed with 80 lbs/ac nitrogen. The field was not irrigated. AB01 treated plots were sprayed with a 2 gram per acre dose at the tasseling (VT) stage. Spraying was accomplished by resuspending solid AB01 in 0.5 mL of acetone, and diluting in water for a spray volume of 1 gallon per 500 square feet. Experiments were performed in triplicate […] The fraction of fertilized ears was measured by visual inspection of the ear silk at the R2-R3 stage. Unfertilized silks that appear yellow/green, while fertilized silks appear reddish brown. Completely unfertilized ears have silks that are completely yellow/green, fertilized ears appear brown, while ears with an incomplete degree of fertilized silks have a mixed population of silks. […] Ears were visually inspected at harvest to monitor kernel set (the number of fully formed kernels in the mature ear). […] Ears volume was measured in the field at the R3 stage to calculate ear volume. The length and circumference of each ear was measure, and volume was calculated by treating the ear as a cylinder. Approximately 100 ears from each plot were measured. […] After harvest, ears were shelled and kernels counted and weighed to quantitate the ‘thousand kernel weight’ (TKW), or average mass of kernels in the trial. AB01 treated plots yielded kernels averaging 30% higher mass than control plots. Ears from control and treated plots were harvested, shelled, and moisture tested to quantitate dry mass. Control plots averaged 120 bushels per acre, while AB01 treated plots averaged 143 bushels per acre, a 19% increase. Grain yield is calculated at 15% moisture, a standard measure of harvest output.

Alfalfa [4] = assay: Salinity tolerance in alfalfa seedlings; assay type: in vivo; conditions: 1 mg/mL; irrigated every 48 hours with 35 g/L NaCl; after 5 days
Description: Alfalfa was grown from seeds for 14 days. Seedlings were treated with 1 mg/mL AB01 or mock treated. After treatment, plants were irrigated with 100 mL water containing 35 g/L dissolved salt (NaCl). Irrigation was performed every 48 hours and plants monitored for symptoms of salinity stress.

Tomato seedlings = assay: Salinity tolerance in tomato seedlings; assay type: in vivo; conditions: 10 mg/mL; 29.2 g/L NaCl irrigation 24 hours after treatment; 6 hours after salt irrigation
Description: Tomato seedlings were treated with 10 mg/mL AB01 or mock treated. 24 hours after treatment, they were irrigated with 250 mL water containing 29.2 g/L salt (NaCl).

Wheat = assay: Drought tolerance in greenhouse wheat; assay type: in vivo; conditions: 1 mg in 100 mL water; irrigation stopped; 7 days post treatment
Description: Wheat was grown in greenhouse conditions from seed for 6 weeks with adequate irrigation. Plants were treated with 1 mg of AB01 resuspended in acetone and diluted in 100 mL water, or mock treated as a control. Irrigation was stopped and plants monitored for symptoms of drought stress.

Striga = assay: Field trial in Striga infested fields, Siaya County, Kenya; assay type: in vivo; conditions: 1 gram per acre sprayed 1 week prior to planting
Description: Field trial was performed from August 2013 to January 2014 in Siaya County, Kenya. AB01 treated plots were sprayed with a 1 gram per acre dose 1 week prior to planting. Treatment was accomplished by resuspending solid AB01 in 1 mL of acetone, and diluting in 4000 L of water. 3 replicate treated and untreated plots (100 m2 each) were performed. […] (C) The biomass of Striga from each plot was collected and measured after harvest.

[5] = test system: Dekalb 67-86 RR corn seedlings; assay: Acute water stress in corn seedlings (leaf rolling score); assay type: in vivo; conditions: 40 mL of 0.1 mM or 1.0 mM; 6th day without irrigation
Description: Corn seedlings were scored as unstressed, moderately water stressed and severely water stressed as measured by visual inspection of leaf rolling, a response of corn to water stress. Dekalb 67-86 RR corn seeds were planted and then irrigated through 7 days after emergence in a greenhouse setting. Seedlings were then treated with 40 mL of water, 0.1 mM AB01 or 1.0 mM AB01 and irrigation ceased. On the 6th day without irrigation, seedlings were scored for water stress. Seedlings with open leaves were scored as unstressed; seedlings with partial leaf rolling were scored as moderately stressed; seedlings with completely rolled leaves were scored as severely stressed.

Striga hermonthica seeds = conditions: 10^-8 M concentrations; cited from earlier work

CC1=CC(O/C=C2\C(=O)O[C@]3(C)CCC4C(C)(C)CCC[C@]4(C)[C@@H]23)OC1=O (stereo partly shown) [AB01]
fraction of Striga seeds triggered to germinate (Seeds of Striga asiatica; at 1 nanogram per liter and greater): approximately 30%
concentrations able to trigger germination of Striga seeds (Seeds of Striga asiatica; dilutions in water, seeds conditioned in the dark at 30 degrees for 7 days): ≥ 1 nanogram per liter
bioactivity: induction of Striga germination (in words) (Seeds of Striga asiatica): graded dose-response behavior
bioactivity: induction of Striga germination (in words) (Seeds of Striga asiatica; listed as Synthetic SL): potent bioactivity, with nanograms of material inducing germination of Striga seeds
bioactivity: induction of Striga germination (in words) (Seeds of Striga asiatica; listed as synthetic SL): displayed bioactivity
bioactivity: induction of Striga germination (in words) (Seeds of Striga asiatica; listed as synthetically produced SL): effective at germinating seeds of Striga asiatica
impact on phenotype of strigolactone-deficient mutant [1]: visible impact on the phenotype of the mutant
vase life of cut flowers (cut flowers; added to irrigation water, various concentrations, water-only approximately 4 days): 6 to 7 days
vase life extension (cut flowers; versus water-only control): 50-60%
germination triggering efficiency (appearance of haustoria) (Seeds of O. cumana): Significant differences in germination triggering efficiency
appearance of seedlings under water limitation stress (Alfalfa [2]): treated seedlings appeared robust
increase of harvest grain yield over control plots ([3]; 2 gram per acre spray at VT): 19%
average kernel mass (thousand kernel weight), higher than control plots ([3]; 2 gram per acre spray at VT, after harvest): 30%
harvest grain yield ([3]; 2 gram per acre spray at VT, calculated at 15% moisture, control plots 120): 143 bushels per acre
ear volume ([3]; 2 gram per acre spray at VT, measured at R3 stage, vs mock): significantly higher volumes
kernel set at harvest ([3]; 2 gram per acre spray at VT, visual inspection, vs mock): more complete kernel set and few signs of kernel abortion
fraction of fertilized / unfertilized ears ([3]; 2 gram per acre spray at tasseling (VT), ear silk inspected at R2-R3 stage, vs mock): decreased the fraction of unfertilized ears while increasing the fraction of fertilized ears
symptoms of salinity stress (chlorosis, vigor) (Alfalfa [4]): displayed significantly higher vigor
symptoms of salinity shock (wilting) (Tomato seedlings): appeared unstressed
symptoms of drought stress (wilting) (Wheat): appeared vigourous
Striga emergence and Striga-related stress in plots (Striga): few signs of Striga-related stress and parasite emergence
biomass of Striga per plot after harvest (Striga): significant reduction in the mass of Striga present
count of emergent Striga per plot (Striga): few parasites in treated plots
increase of grain yields compared to untreated plots (Striga): 25%
fraction of seedlings scored unstressed / severely water stressed [5]: decreased the fraction of severely stressed seedlings while increasing the fraction of unstressed seedlings in a dose-dependent manner

CC1=CC(OC=C2C(=O)OC3C4=C(CC23)C(O)CCC4(C)C)OC1=O (stereo not drawn) [ent-strigol]
activity in germination studies of Striga hermonthica seeds (Striga hermonthica seeds): 22%

CC1=C[C@H](O/C=C2/C(=O)O[C@@H]3C4=C(CCCC4(C)C)CC23)OC1=O (stereo partly shown) [5-dS, 5-deoxystrigol, reference compound]
germination triggering efficiency (appearance of haustoria) (Seeds of O. cumana): Significant differences in germination triggering efficiency

CC1=C[C@H](O/C=C2/C(=O)O[C@@H]3C4=C(C[C@H]23)C(O)CCC4(C)C)OC1=O (single isomer, unassigned; (+)) [(+)-strigol, (+)-Strigol]
activity in germination studies of Striga hermonthica seeds (Striga hermonthica seeds): 93%
